The text below walks through data of ChEMBL document CHEMBL5365530, “Identification of a Novel, Potent, and Orally Bioavailable Guanidine-Based SHP2 Allosteric Inhibitor from Virtual Screening and Rational Structural Optimization for the Treatment of KRAS Mutant Cancers” (J Med Chem, 2023).

The structures appear in SMILES notation.

Data set [1] deals with T1, Tyrosine-protein phosphatase non-receptor type 11 (Homo sapiens, UniProt Q06124).
T1 sequence (Q06124 whole entry): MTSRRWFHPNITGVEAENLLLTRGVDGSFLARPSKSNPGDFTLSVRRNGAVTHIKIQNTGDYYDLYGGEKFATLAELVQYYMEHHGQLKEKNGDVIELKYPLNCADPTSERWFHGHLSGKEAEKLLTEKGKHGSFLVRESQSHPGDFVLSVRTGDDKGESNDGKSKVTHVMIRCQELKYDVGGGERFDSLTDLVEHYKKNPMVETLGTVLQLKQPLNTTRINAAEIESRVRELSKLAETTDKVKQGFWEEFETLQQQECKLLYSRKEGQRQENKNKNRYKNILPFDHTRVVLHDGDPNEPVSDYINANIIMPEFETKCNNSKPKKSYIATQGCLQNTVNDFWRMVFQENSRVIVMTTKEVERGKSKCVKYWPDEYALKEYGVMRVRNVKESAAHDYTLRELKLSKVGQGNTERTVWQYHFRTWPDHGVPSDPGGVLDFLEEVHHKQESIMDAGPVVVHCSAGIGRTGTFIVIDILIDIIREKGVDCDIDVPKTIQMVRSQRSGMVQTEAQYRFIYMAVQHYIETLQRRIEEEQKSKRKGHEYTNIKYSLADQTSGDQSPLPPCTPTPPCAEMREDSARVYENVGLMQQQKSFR
The data set is described as follows: Allosteric Inhibition of H2N-LN(pY)IDLDLV(dPEG8)LST(pY)ASINFQKASINFQK-amide-activated SHP2 (unknown origin) using DiFMUP as substrate pretreated with enzyme for 1 hr followed by substrate addition and measured after 20 mins by fluorescence based analysis.

The subject of another data set is MIA PaCa-2. Briefly: Antiproliferative activity against human MIA PaCa-2 cells harboring KRASG12C mutant assessed as inhibition of cell growth incubated for 72 hrs by CellTiter-LumiII Luminescent assay. The format is functional, cell-based. The following applies: MIA PaCa-2, 72 h.
The test system of another data set is KYSE-520 cell line. The data set is described as follows: Antiproliferative activity against human KYSE-520 cells assessed as inhibition of cell growth incubated for 72 hrs by CellTiter-LumiII Luminescent assay. It is filed as functional, cell-based. As to conditions: KYSE-520, 72 h.
The next data set relates to RAW264.7. Briefly: Cytotoxicity against mouse RAW264.7 cells assessed as cell viability at 10 to 30 uM incubated for 72 hrs by CellTiter-LumiII Luminescent assay. It is filed as toxicity, cell-based. As to conditions: raw264.7, 72 h, dose 10-30 µM.
The nature of data set [2]: Hepatotoxicity in ICR mouse assessed as increase in plasma AST level at 100 mg/kg, po administered once every 2 days and measured on day 14. As to conditions: in vivo, 336 h, time 14 day. It is filed as toxicity, organism-based.
Data set [3] in a line: Hepatotoxicity in ICR mouse assessed as increase in plasma ALT level at 100 mg/kg, po administered once every 2 days and measured on day 14. It is filed as toxicity, organism-based. As to conditions: in vivo, 336 h, time 14 day.
Data set [4] can be described thus: Hepatotoxicity in ICR mouse assessed as increase in plasma ALP level at 100 mg/kg, po administered once every 2 days and measured on day 14. The following applies: in vivo, 336 h, time 14 day. The format is toxicity, organism-based.

With `N#Cc1ccc(/N=C(\N)N2CCN(c3cnc(-c4cccc(Cl)c4Cl)cn3)CC2)cc1`, in data set [1], the IC50 – broadly, the concentration needed to halve the response being measured – turned out to be 3760 nM. Take `CNC(=O)c1ccc(/N=C(\N)N2CCN(c3cnc(-c4cccc(Cl)c4Cl)c(N)n3)CC2)cc1`: the IC50 in data set [1] worked out at 3210 nM. In the case of `NC(=S)N1CCN(c2cnc(-c3cccc(Cl)c3Cl)c(N)n2)CC1`, the half-maximal inhibitory concentration (IC50) in data set [1] amounted to 1150 nM. On to `N/C(=N\c1cncnc1)N1CCN(c2cnc(-c3cccc(Cl)c3Cl)c(N)n2)CC1`, for which, in data set [1], the IC50 was 210 nM. For the molecule `COc1cccc(/N=C(\N)N2CCN(c3cnc(-c4cccc(Cl)c4Cl)c(N)n3)CC2)c1`, the IC50 in data set [1] was 30.4 nM. Take `Nc1nc(N2CCN(S(N)(=O)=O)CC2)cnc1-c1cccc(Cl)c1Cl`: the IC50 in data set [1] came to 3400 nM. As to `N=C(N)N1CCN(c2cnc(-c3cccc(Cl)c3Cl)c(N)n2)CC1`, the IC50 in data set [1] was determined as 414 nM. In the case of `N#Cc1ccc(/N=C(\N)N2CCN(c3cnc(Sc4cccnc4C(F)(F)F)c(N)n3)CC2)cc1`, in data set [1], the IC50 worked out at 159 nM. In the case of `CC1(N)CCN(c2cnc(-c3cccc(Cl)c3Cl)c(N)n2)CC1`, the 50% inhibitory concentration (IC50) in the data set on MIA PaCa-2 turned out to be 41900 nM; in the data set with KYSE-520 cell line, 10800 nM. Further, the Activity result in the data set on RAW264.7 is recorded as “Non-Toxic”; in data set [2], “Toxic”; in data set [3], “Toxic”; in data set [4], “Toxic”. In the case of `N/C(=N\c1cccnc1)N1CCN(c2cnc(-c3cccc(Cl)c3Cl)c(N)n2)CC1`, in data set [1], the IC50 was found to be 142 nM. `N/C(=N\c1ccc(C(F)(F)F)cc1)N1CCN(c2cnc(-c3cccc(Cl)c3Cl)c(N)n2)CC1`: the concentration for half-maximal inhibition (IC50) in data set [1] was 92.2 nM.

As for `N/C(=N\c1ccncc1)N1CCN(c2cnc(-c3cccc(Cl)c3Cl)c(N)n2)CC1`, the IC50 in data set [1] came out at 64.5 nM. The same measure, in the same setting: the figure for `N/C(=N\c1ccccc1)N1CCN(c2cnc(-c3cccc(Cl)c3Cl)c(N)n2)CC1` is 137 nM. On the same count and under the same terms, the figure for `COc1ccc(/N=C(\N)N2CCN(c3cnc(-c4cccc(Cl)c4Cl)c(N)n3)CC2)cc1` is 52.7 nM. Regarding `N=C(N)N1CCN(c2cnc(-c3cccc(Cl)c3Cl)c(N)n2)C(=O)C1`, in data set [1], the IC50 was above 10000 nM.
